From article PMC8311653, “Design, Synthesis, In Vitro and In Vivo Characterization of Selective NKCC1 Inhibitors for the Treatment of Core Symptoms in Down Syndrome” (Journal of Medicinal Chemistry, 2021)

Columns and labels:
NKCC1 = molecular target: T1, NKCC1 (Homo sapiens, UniProt P55011); test: Cl- influx assay in NKCC1-transfected HEK293 cells; format: cell-based; details: for inhibition at 10 µM: HEK293, read-out: Inhibition 10 μM Cl- influx (%); for inhibition at 100 µM: HEK293, read-out: Inhibition 100 μM Cl- influx (%)
T1 construct: host or cells: HEK293
T1 sequence (P55011 1-1212): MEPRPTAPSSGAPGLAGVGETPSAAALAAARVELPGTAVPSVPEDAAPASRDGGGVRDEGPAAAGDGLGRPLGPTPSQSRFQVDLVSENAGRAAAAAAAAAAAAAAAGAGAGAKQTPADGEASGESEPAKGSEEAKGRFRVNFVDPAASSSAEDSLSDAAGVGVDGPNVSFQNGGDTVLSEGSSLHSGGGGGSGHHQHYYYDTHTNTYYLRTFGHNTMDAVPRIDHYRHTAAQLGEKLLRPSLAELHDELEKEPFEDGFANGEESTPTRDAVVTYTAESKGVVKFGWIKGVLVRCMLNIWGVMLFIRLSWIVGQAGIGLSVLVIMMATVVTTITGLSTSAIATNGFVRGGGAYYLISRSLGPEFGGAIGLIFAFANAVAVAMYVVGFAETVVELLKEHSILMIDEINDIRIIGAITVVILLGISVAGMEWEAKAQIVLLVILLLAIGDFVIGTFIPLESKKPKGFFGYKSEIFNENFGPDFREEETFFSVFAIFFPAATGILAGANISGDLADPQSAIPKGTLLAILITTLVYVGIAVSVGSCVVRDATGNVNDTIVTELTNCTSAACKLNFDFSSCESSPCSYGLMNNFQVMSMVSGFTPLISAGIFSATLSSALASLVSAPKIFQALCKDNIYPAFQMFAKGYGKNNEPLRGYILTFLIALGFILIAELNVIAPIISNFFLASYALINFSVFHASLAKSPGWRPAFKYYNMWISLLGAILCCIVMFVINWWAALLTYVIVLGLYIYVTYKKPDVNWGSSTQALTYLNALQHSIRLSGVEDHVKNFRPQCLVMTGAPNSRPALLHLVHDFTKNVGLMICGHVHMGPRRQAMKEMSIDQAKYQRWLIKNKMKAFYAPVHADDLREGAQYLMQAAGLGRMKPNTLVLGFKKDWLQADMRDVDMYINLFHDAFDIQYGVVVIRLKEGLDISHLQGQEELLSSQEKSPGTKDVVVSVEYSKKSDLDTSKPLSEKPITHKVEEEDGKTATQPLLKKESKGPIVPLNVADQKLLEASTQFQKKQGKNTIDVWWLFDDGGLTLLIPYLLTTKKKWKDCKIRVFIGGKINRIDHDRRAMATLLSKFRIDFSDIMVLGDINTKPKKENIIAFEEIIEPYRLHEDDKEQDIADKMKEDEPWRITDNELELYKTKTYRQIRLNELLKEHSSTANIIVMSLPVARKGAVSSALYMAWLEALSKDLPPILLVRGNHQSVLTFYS
Description: HEK293 cells were cultured in Dulbecco’s modified Eagle’s medium (DMEM) supplemented with 10% fetal bovine serum, 1% L-glutamine, 100 U/mL penicillin, and 100 μg/mL streptomycin and maintained at 37 °C in a 5% CO2 humidified atmosphere. To assess NKCC1 and NKCC2 activity (Cl^– influx assay), 3 million HEK cells were plated in a 10 cm cell-culture dish and transfected with a transfection mixture comprising 5 mL of DMEM, 4 mL of Opti-MEM, 8 μg of DNA plasmid coding for NKCC1 (PRK-NKCC1 obtained from Medical Research Council and the University of Dundee), NKCC2 (OriGene plasmid #RC216145) subcloned in PRK5 plasmid, or mock control (empty vector), together with 8 μg of a plasmid coding for the Cl^–-sensitive variant of the membrane-targeted fluorescent protein YFP, mbYFPQS (Addgene plasmid #80742),[53] and 32 μL of Lipofectamin 2000. To assess KCC2 activity (Tl influx assay), cells were transfected with 8 μg of KCC2[54] subcloned in the PRK5 plasmid or mock control (empty vector) and 16 μL of Lipofectamin 2000. After 4 h, the cells were collected and plated in 96-well black-walled, clear-bottomed plates at a density of 2.5 × 10^4. After 48 h, cells were used for the Cl^– or Tl influx assays. All reagents were purchased from Life Technologies, unless otherwise specified.
Transfected cells were treated with 10 μM or 100 μM bumetanide (as positive controls), DMSO (as the negative control), or with each of our compounds in 100 μL/well of a Cl^–-free hypotonic solution (67.5 mM Na^+ gluconate, 2.5 mM K^+ gluconate, 15 mM HEPES pH 7.4, 50 mM glucose, 1 mM Na2HPO4, 1 mM NaH2PO4, 1 mM MgSO4, and 1 mM CaSO4). After 30 min of incubation, plates were loaded into a Victor 3V (PerkinElmer) multiplate reader equipped with an automatic liquid injector system, and fluorescence of Cl^–-sensitive mbYFPQS was recorded with excitation at 485 nm and emission at 535 nm. For each well, fluorescence was first recorded for 20 s of the baseline and for 60 s after delivery of a NaCl concentrated solution (74 mM final concentration in the assay well). Fluorescence of Cl^–-sensitive mbYFPQS is inversely correlated to the intracellular Cl^– concentration;[53] therefore, chloride influx into the cells determined a decrease in mbYFPQS fluorescence. To represent the fluorescent traces in time, we normalized the fluorescence value for each time point to the average of the fluorescence value of the first 20 s of the baseline (ΔF/F0). To quantify the average effects as represented by the bar plots, we expressed the decrease in fluorescence upon NaCl application as the average of the last 10 s of ΔF/F0 normalized traces. Moreover, for each experiment, to account for the contribution of Cl^– changes that were dependent on transporters/exchangers other than NKCC1 or NKCC2, we subtracted the value of the last 10 s of ΔF/F0 normalized traces obtained from mock-transfected cells (either control or treated) from the respective ΔF/F0 value obtained from the cells transfected with NKCC1 or NKCC2. We then presented in the figures all the data as a percentage of the fluorescence decrease versus the value of the control DMSO.

WT and Ts65Dn mice = test: Diuresis analysis in metabolic cages; details: 0.6 mg kg-1 ip; adult WT and Ts65Dn mice; vs vehicle-treated mice
Description: A veterinarian was employed to maintain the health and comfort of the animals. Mice were housed in filtered cages in a temperature-controlled room with a 12:12 h dark/light cycle and with ad libitum access to water and food. All efforts were made to minimize animal suffering and use the lowest possible number of animals required to produce statistical relevant results, according to the “3Rs concept”. In this study, we used Ts65Dn mice maintained in their original genetic background[57] by crossing (more than 40 times) Ts65Dn female to C57BL/6JEi × C3SnHeSnJ (B6EiC3) F1 males (Jackson Laboratories). Ts65Dn mice were genotyped by PCR as previously described.[58] Only males were used for behavioral experiments. Ts65Dn and controls were randomly assigned to vehicle groups (2% DMSO in saline), bumetanide (Sigma, 0.6 mg kg^–1 body weight), or 40 (0.6 mg kg^–1 body weight) and treated daily for ∼21 days by intraperitoneal injection (i.p.). On the day of behavioral testing, injection was performed 1 h before the task began.

SMILES | inhibition at 10 µM (NKCC1) [%] | inhibition at 100 µM (NKCC1) [%] | diuretic effect (urine volume collected for 2 h) (WT and Ts65Dn mice)
CCCCNc1cc(C(=O)O)cc(S(N)(=O)=O)c1Oc1ccccc1 [bumetanide, reference compound] | 58.8 ± 5.6 | 71.7 ± 7 | significantly increased the urine volume
CN(C)S(=O)(=O)c1cc(C(=O)O)c(O)cc1NCCCCCCCC(F)(F)F [Compound 40, 5-(N,N-Dimethylsulfamoyl)-2-hydroxy-4-((8,8,8-trifluorooctyl)amino)benzoic Acid] | – | – | did not induce any significant diuresis
CN(C)S(=O)(=O)c1cc(C(=O)O)ccc1NCCCCCCCC(F)(F)F [Compound 1, 3-(-N,N-Dimethylsulfamoyl)-4-(8,8,8-trifluorooctylamino)benzoic Acid] | 37.1 ± 5 | 88.5 ± 1.7 | –
